# Like-named read-outs stand apart in the source and are kept apart here.
# Assays:
# CYP1A2 and CYP2D6 = test: In vitro effect on CYP1A2 and CYP2D6; conditions: therapeutically relevant concentrations
# P-gp = P-gp (Homo sapiens, UniProt P08183); test: In vitro transporter substrate assessment: P-gp
# [1] = biological target: T1, organic anion transporter 1 (OAT1) (Homo sapiens, UniProt Q4U2R8); test: In vitro transporter inhibition: OAT1
# T1 sequence (Q4U2R8 1-563): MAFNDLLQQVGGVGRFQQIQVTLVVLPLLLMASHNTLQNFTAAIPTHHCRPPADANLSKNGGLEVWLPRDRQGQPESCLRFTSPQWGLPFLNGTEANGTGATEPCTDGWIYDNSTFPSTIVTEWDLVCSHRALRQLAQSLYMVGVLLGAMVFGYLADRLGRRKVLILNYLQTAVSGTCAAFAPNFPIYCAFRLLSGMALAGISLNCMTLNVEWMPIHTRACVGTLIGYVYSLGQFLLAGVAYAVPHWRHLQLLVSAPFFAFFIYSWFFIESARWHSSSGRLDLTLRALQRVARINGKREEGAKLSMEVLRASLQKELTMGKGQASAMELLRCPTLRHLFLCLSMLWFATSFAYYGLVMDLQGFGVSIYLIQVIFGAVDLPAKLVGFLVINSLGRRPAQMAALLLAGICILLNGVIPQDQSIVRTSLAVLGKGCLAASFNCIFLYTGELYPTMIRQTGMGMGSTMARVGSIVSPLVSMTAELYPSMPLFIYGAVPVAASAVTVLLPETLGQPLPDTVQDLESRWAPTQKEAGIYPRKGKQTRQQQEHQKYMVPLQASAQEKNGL
# plasma proteins = test: Plasma protein binding; conditions: no concentration dependency
# [2] = human, in vivo
# [3] = Single oral administration of 14C-labeled apalutamide 240 mg (metabolite profile, excretion)
# human CYP2B6 and CYP3A4 = test: CYP induction in vitro (hepatocytes)
# [4] = tested on: organic cation transporter 2 (OCT2), organic anion transporter 3 (OAT3) and multidrug and toxin extrusions (MATEs); test: In vitro transporter inhibition: OCT2, OAT3, MATEs; format: in vitro ADME
# CYP2B6 and CYP2C8 = test: In vitro CYP inhibition: CYP2B6 and CYP2C8
# [5] = tested on: BCRP, OATP1B1, and OATP1B3; test: In vitro transporter substrate assessment: BCRP, OATP1B1, OATP1B3
# [6] = Preclinical pharmacokinetic profile; format: in vivo; conditions: relative to apalutamide
# [7] = tested on: CYP2C9, CYP2C19, and CYP3A4; test: In vitro CYP inhibition: CYP2C9, CYP2C19, CYP3A4
# androgen receptor (AR) = androgen receptor (AR) (Homo sapiens, UniProt P10275); conditions: cited from earlier work
# androgen receptor (AR), sequence (P10275 whole entry): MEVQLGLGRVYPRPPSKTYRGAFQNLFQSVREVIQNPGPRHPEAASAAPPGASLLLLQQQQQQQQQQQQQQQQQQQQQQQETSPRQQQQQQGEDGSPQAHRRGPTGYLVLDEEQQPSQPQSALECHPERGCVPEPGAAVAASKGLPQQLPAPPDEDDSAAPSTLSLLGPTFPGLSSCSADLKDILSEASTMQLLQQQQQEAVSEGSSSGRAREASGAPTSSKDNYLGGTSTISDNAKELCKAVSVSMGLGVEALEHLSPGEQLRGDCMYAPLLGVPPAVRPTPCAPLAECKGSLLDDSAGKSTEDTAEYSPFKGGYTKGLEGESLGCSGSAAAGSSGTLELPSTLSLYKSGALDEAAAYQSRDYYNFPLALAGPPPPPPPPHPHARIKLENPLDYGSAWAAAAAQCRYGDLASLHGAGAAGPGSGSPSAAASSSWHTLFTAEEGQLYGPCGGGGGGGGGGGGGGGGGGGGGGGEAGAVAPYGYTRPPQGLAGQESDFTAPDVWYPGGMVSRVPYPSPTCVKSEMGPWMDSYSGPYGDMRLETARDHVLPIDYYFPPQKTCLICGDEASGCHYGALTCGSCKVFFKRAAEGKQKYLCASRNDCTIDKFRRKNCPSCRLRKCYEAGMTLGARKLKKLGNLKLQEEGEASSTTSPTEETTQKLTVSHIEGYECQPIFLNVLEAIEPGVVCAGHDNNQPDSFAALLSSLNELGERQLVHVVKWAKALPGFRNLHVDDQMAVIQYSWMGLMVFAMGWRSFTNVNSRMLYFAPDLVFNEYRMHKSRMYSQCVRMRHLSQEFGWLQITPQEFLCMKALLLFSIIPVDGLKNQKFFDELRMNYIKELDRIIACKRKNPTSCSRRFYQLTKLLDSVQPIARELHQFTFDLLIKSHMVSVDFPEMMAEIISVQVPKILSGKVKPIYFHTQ
# [8] = human, in vivo, po, 240 mg
# [9] = listed as N-desmethyl metabolite
# P-gp, sequence (P08183 whole entry): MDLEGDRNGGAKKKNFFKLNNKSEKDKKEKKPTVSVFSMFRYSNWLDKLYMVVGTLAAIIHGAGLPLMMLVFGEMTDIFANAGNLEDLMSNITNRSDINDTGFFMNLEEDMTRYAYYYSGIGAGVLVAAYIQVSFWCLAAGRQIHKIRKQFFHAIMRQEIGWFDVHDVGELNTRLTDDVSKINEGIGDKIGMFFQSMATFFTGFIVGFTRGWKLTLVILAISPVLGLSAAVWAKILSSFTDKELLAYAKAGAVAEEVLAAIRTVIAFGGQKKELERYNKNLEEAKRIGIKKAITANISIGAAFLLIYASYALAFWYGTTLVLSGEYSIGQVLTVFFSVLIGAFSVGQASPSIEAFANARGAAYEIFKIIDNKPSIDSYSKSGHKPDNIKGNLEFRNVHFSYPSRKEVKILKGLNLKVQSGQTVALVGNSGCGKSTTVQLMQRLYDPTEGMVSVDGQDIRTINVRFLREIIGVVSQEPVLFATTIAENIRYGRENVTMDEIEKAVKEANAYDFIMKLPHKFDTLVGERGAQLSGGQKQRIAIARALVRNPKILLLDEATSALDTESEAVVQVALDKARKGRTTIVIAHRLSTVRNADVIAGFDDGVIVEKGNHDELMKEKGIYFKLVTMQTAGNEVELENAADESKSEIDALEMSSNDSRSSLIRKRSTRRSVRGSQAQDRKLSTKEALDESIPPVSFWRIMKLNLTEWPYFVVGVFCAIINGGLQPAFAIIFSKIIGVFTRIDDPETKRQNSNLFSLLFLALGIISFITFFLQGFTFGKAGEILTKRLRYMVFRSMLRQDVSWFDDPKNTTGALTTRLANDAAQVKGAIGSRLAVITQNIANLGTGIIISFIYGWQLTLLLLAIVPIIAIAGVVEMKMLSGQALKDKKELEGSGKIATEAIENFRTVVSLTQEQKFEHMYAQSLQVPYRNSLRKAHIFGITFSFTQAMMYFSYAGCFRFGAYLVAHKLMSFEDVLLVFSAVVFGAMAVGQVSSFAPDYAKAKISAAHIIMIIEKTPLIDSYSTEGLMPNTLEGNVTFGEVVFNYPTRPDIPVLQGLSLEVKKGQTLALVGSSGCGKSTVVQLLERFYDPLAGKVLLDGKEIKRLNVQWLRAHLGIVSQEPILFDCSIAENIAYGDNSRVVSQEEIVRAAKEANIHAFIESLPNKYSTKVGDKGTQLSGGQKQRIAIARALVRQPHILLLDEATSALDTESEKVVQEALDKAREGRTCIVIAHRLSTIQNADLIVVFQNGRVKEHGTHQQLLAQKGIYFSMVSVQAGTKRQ
compound,measurement,setting,value
N-desmethyl apalutamide,effect on CYP1A2 and CYP2D6,CYP1A2 and CYP2D6,do not affect
same,substrate for P-gp,P-gp,substrates for P-gp
same,inhibition of OAT1,[1],do not inhibit
same,inhibition of OAT1,[1]; [9],No in vitro inhibition
same,bound to plasma proteins,plasma proteins,95%
same,"AUC at steady-state, mean",[2],124 µg·h/mL
same,"Cmax at steady-state, mean",[2],5900 ng/mL
same,differences in pharmacokinetics in specific populations,[2],No clinically significant differences
same,"AUC at steady-state, mean",[2]; 240 mg,124 µg·h/mL
same,"Cmax at steady-state, mean",[2]; 240 mg,5900 ng/mL
same,share of the total 14C-AUC in plasma,[3]; single oral 240 mg,44%
same,% of dose in feces as this compound,[3]; up to 70 days,2%
same,% of dose in urine as this compound,[3]; up to 70 days,2.7%
same,induction of human CYP2B6 and CYP3A4 in hepatocytes,human CYP2B6 and CYP3A4; concentrations up to 30 μM,inducers
same,CYP3A4 and CYP2B6 induction,human CYP2B6 and CYP3A4; in vitro studies,moderate to strong CYP3A4 and CYP2B6 inducers
same,"inhibition of OCT2, OAT3 and MATEs",[4],inhibit
same,"inhibition of OCT2, OAT3 and MATEs",[4]; [9],cannot be excluded
same,inhibition of CYP2B6 and CYP2C8,CYP2B6 and CYP2C8,moderate inhibitors
same,"substrate for BCRP, OATP1B1, and OATP1B3",[5],"not BCRP, OATP1B1, and OATP1B3"
same,elimination half-life,[6],longer elimination half-life than apalutamide
same,"inhibition of CYP2C9, CYP2C19, and CYP3A4",[7],weak inhibitors
CC(O)c1cc(C(=O)N[C@@H](C)Cn2ccc(-c3ccc(C#N)c(Cl)c3)n2)[nH]n1 (some centres unmarked) [Darolutamide],binding affinity to AR,androgen receptor (AR),high affinity
N#Cc1ncc(N2C(=O)C3(CCC3)N(c3ccc(C(=O)O)c(F)c3)C2=S)cc1C(F)(F)F [inactive carboxylic acid metabolite],share of the total 14C-AUC in plasma,[8],3%
